We go through six molecules from ChEMBL document CHEMBL1122063, “Renin inhibitors. Substitution of the leucyl residues of Leu-Leu-Val-Phe-OCH3 with 3-amino-2-hydroxy-5-methylhexanoic acid” (J Med Chem, 1982).

For this experiment, the target named is T1, Renin (Homo sapiens, UniProt P00797).
T1 sequence (P00797 whole entry): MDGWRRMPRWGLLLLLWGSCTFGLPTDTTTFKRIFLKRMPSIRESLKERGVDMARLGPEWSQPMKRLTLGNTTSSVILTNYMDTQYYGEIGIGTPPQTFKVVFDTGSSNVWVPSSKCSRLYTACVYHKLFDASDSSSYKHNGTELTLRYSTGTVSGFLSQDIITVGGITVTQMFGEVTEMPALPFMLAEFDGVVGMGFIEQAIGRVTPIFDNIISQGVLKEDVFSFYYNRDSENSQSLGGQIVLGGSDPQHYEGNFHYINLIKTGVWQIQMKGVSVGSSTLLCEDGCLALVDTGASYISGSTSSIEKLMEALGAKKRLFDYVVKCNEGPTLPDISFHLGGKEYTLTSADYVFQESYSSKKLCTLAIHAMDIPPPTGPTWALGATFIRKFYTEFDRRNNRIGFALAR
As to the kind of experiment: Competitive inhibition of renin from human amniotic […].
With `COC(=O)[C@H](Cc1ccccc1)NC(=O)[C@@H](NC(=O)[C@H](O)[C@@H](N)CC(C)C)C(C)C`, the Ki stood at 1010 µM.

Molecule `COC(=O)[C@H](Cc1ccccc1)NC(=O)[C@@H](NC(=O)[C@@H](O)[C@@H](N)CC(C)CC(=O)[C@@H](N)CC(C)C)C(C)C` (stereo partly specified) came in with a Ki of 520 µM.

`COC(=O)[C@H](Cc1ccccc1)NC(=O)[C@@H](NC(=O)[C@@H](CC(C)C)NC(=O)[C@H](O)[C@@H](N)CC(C)C)C(C)C`: the Ki turned out to be 1520 µM.

Molecule `COC(=O)[C@H](Cc1ccccc1)NC(=O)[C@@H](NC(=O)[C@H](CC(C)C)NC(=O)[C@@H](O)[C@@H](N)CC(C)C)C(C)C` gave a Ki of 960 µM.

Take `COC(=O)[C@H](Cc1ccccc1)NC(=O)[C@@H](NC(=O)[C@@H](O)[C@@H](N)CC(C)C)C(C)C`: the Ki came to 2440 µM.

`COC(=O)[C@H](Cc1ccccc1)NC(=O)[C@@H](NC(=O)[C@H](O)[C@@H](N)CC(C)CC(=O)[C@@H](N)CC(C)C)C(C)C` (stereo partly specified) registered a Ki of 440 µM.

Usually Ki stands for a dissociation constant, usually derived from enzyme kinetics or from competition with a known ligand. The low end stands for higher affinity, the high end for lower affinity.
